Laboratory results published in patent US9067896B2, “Crystalline forms of 3-(2,6-dichloro-3,5-dimethoxy-phenyl)-1-{6-[4-(4-ethyl-piperazin-1-yl) -phenylamino]-pyrimidin-4-yl}-1-methyl-urea and salts thereof” (Novartis AG, priority 2009, dated 2015).
Where a name gives a salt, the structure may show the parent alone. Read-outs that look alike come from different tables or passages of the source. Blank lines part the entries; values can stand above or below the compound they belong to.

Legend:
[1] = Intrinsic dissolution rate; type: physicochemical; settings: 37° C., disc 200 rpm, 290 nm
Procedure: The intrinsic dissolution rate measurements were carried out in 0.5 cm^2 VanKel punch and die assemblies at a pellet pressure of 2000 pounds. […]
The intrinsic dissolution rate was determined for the phosphate salt in water, pH=6.8 and 0.1N HCl, and for the free base monohydrate in pH=6.8, 4.5 and 0.1N HCl. The measurements were carried out on a VanKel instrument using a Cary UV/VIS spectrophotometer (Table 2).

[2] = Solid state stability; type: physicochemical; settings: one week at 80° C., sealed containers and 75% relative humidity, alone and with excipients as 1% mixture
Procedure: In the solid state, the samples were stressed for one week at 80° C., in sealed containers and under 75% relative humidity. […] The amount of degradation products of the anhydrous free base as assessed by HPLC was 1% or less (based on peak area), while the degradation of the phosphate salt accounted for 1.4% or less.

[3] = Hygroscopicity from DVS sorption/desorption isotherms; type: physicochemical
Procedure: Hygroscopicity was measured from sorption/desorption isotherms using Surface Measurement System DVS-1 at 25±0.5° C. Samples were evaluated at various humidities including 75%, 85%, and 95%.
The free base (anhydrous and monohydrate) and its phosphate salt (form A) were subjected to sorption and desorption cycle using a VTI brand instrument. The solids were collected after the experiment and analyzed. […] The DVS plots are shown in FIGS. 4A (free base, anhydrous), 4B (phosphate salt (form A) and 4C (free base, monohydrate). The maximum water uptake for the phosphate salt (form A) was less than 2% (i.e. 0.7%) at 25° C. up to 95% relative humidity (rh) (see Table 9). The maximum water uptake for the monohydrate was less than 1.4% at 25° C. up to 95% RH. The monohydrate with an approximate water content of 3% could not be completely dried during the experiment but the water that could be removed was reversibly reabsorbed. The plateau of existence of the monohydrate form is found to be within 10% and 95% RH with a slight hysteresis at the second desorption cycle.

[4] = Pharmacokinetics / bioavailability in rats; type: in vivo; settings: for concentration at 24 h / concentration at 8 h: read-out: Clast [μmol/L ± SE]; for half-life: read-out: t1/2 terminal elimination (converted); for Cmax: read-out: Cmax [μmol/L ± SE]
Procedure: The higher water solubility of the phosphate salt compared to the free base (and other acid salts, as described above) led to the development of a solution formulation (or composition), which would not be feasible with the free base due to solubility restrictions. For this experiment, the phosphate salt was prepared as follows. In a glass vial, 10.7 mg of the free base was dissolved in 4 ml THF. Phosphoric acid (1.76 ml) in acetone (0.01M) was added. The mixture was warmed to 50° C. for about 2 minutes. The vial was left open for partial evaporation at room temperature. Overnight, a suspension was formed, which was filtered yielding about 5.5 mg of an off-white powder. The bioavailabilities, in rats, of the active agents (the free base and its phosphate salt), formulated variously, are tabulated below (Table 10).

[5] = Solution stability; type: physicochemical; settings: 1 week at 50° C.
Procedure: The solution stability of the free base was tested in buffers ranging from pH 1 to pH 9 for 1 week at 50° C. At pH 5 and higher, the free base was stable, and after accounting for minor initial impurities, degradation was less than 2%. At pH 3, degradation was about 4% and at pH 1, degradation was about 15%. The stability was also tested in water and several organic solvents (1 week at 50° C.).
Without being bound by mechanism, the stability difference between the free base and phosphate salt may be due to the higher aqueous solubility of the phosphate salt compared to the free base, as well as the tendency of the phosphate salt to cause the pH of water to decrease, which may increase the rate of degradation.

[6] = rat, in vivo, iv, 5 mg/kg, rats, i.v. [5 mg/kg]
[7] = rat, in vivo, po, 8.57 mg/kg, rats, free base p.o., suspension (water containing 0.5% HPMC) [8.57 mg/kg]
[8] = rat, in vivo, po, 10 mg/kg, rats, colloidal solution (water, ethanol and cremophor EL) [10 mg/kg]
[9] = rat, in vivo, po, 10 mg/kg, rats, p.o., colloidal solution (water, ethanol and cremophor EL) [10 mg/kg]
[10] = rats, free base p.o., suspension (water containing 0.5% HPMC) [8.57 mg/kg]
[11] = rats, p.o., colloidal solution (water, ethanol and cremophor EL) [10 mg/kg]
[12] = Relative humidity 5%, after the 95% step
[13] = Relative humidity 5%, before the 95% step
[14] = Relative humidity 25%, after the 95% step
[15] = Relative humidity 25%, before the 95% step
[16] = Relative humidity 50%, after the 95% step
[17] = Relative humidity 50%, before the 95% step
[18] = Relative humidity 75%, after the 95% step
[19] = Relative humidity 75%, before the 95% step
[20] = Relative humidity 85%, after the 95% step
[21] = Relative humidity 85%, before the 95% step
[22] = rat, in vivo, po, 8.57 mg/kg, rats, phosphate salt p.o., supension (water containing 0.5% HPMC) [8.57 mg/kg]
[23] = rat, in vivo, po, 10 mg/kg, pH 4.7, rats, p.o., solution (PEG300/acetate buffer pH 4.7 1:1) [10 mg/kg]
[24] = rats, p.o., solution (PEG300/acetate buffer pH 4.7 1:1) [10 mg/kg]
[25] = rats, phosphate salt p.o., supension (water containing 0.5% HPMC) [8.57 mg/kg]

- Intrinsic DR value ([1]; HCl 0.1N, listed as Anhydrous Free Base): 0.28 mg/min/cm^2
- Intrinsic DR value ([1]; Water, listed as Anhydrous Free Base): 0.01 mg/min/cm^2
- amount of degradation products by HPLC (peak area) ([2]; listed as anhydrous free base): ≤ 1%
- hygroscopicity (in words) ([3]; listed as anhydrous free base): slightly hygroscopic
- AUC(0-inf) [4, 6]: 2.47 µM·h
- concentration at 5 min ([4]; rat, in vivo, iv, 5 mg/kg, rats, i.v. [5 mg/kg], read-out: C5 min [μmol/L ± SE]): 0.972 ± 0.404 µmol/L
- concentration at 24 h [4, 6]: 0.003 ± 0.003 µmol/L
- half-life [4, 6]: 4.5 h
- clearance ([4]; rat, in vivo, iv, rats, i.v. [5 mg/kg]): 60 mL/min/kg
- Vd ([4]; rat, in vivo, iv, rats, i.v. [5 mg/kg], read-out: Vss): 9.6 L/kg
- AUC(0-inf) [4, 7]: 1.55 µM·h
- Tmax [4, 7]: 2 h
- concentration at 8 h [4, 7]: 0.077 ± 0.038 µmol/L
- Cmax [4, 7]: 0.202 ± 0.021 µmol/L
- half-life [4, 7]: 4.3 h
- AUC(0-inf) [4, 8]: 1.44 µM·h
- Tmax [4, 8]: 3 h
- concentration at 24 h [4, 9]: 0.01 ± 0.005 µmol/L
- Cmax [4, 9]: 0.154 ± 0.026 µmol/L
- half-life [4, 9]: 5.2 h
- AUC (0-∞) dose ^A [(h · μmol/L)/(mg/kg)] [4, 10]: 0.18 (h · μmol/L)/(mg/kg)
- BAV f [%] [4, 10]: 37 ± 11%
- tlast [4, 10]: 8 h
- AUC (0-∞) dose ^A [(h · μmol/L)/(mg/kg)] ([4]; rats, i.v. [5 mg/kg]): 0.49 (h · μmol/L)/(mg/kg)
- tlast ([4]; rats, i.v. [5 mg/kg]): 24 h
- AUC (0-∞) dose ^A [(h · μmol/L)/(mg/kg)] [4, 11]: 0.14 (h · μmol/L)/(mg/kg)
- BAV f [%] [4, 11]: 29%
- tlast [4, 11]: 24 h
- degradation in solution ([5]; 1:1 acetonitrile/water, listed as free base): about 8%
- degradation in solution ([5]; buffer pH 1): about 15%
- degradation in solution ([5]; buffer pH 3): about 4%
- degradation in solution ([5]; buffers pH 5 and higher): less than 2%
- degradation in solution ([5]; isopropanol): stable
- degradation in solution ([5]; water, listed as free base): stable
SMILES: CCN1CCN(c2ccc(Nc3cc(N(C)C(=O)Nc4c(Cl)c(OC)cc(OC)c4Cl)ncn3)cc2)CC1 [Free Base, 3-(2,6-Dichloro-3,5-dimethoxy-phenyl)-1-{6-[4-(4-ethyl-piperazin-1-yl)-phenylamino]-pyrimidin-4-yl}-1-methyl-urea]

- Intrinsic DR value ([1]; HCl 0.1N): 1.0661 mg/min/cm^2
- Intrinsic DR value ([1]; Water): 0.3279 mg/min/cm^2
- Intrinsic DR value ([1]; pH = 6.8): 0.0056 mg/min/cm^2
- amount of degradation products by HPLC (peak area) [2]: ≤ 1.4%
- weight gain due to water absorption (DVS) ([3]; 75% RH, listed as phosphate salt): < 1%
- weight gain due to water absorption (DVS) ([3]; 85% RH): < 1%
- weight gain due to water absorption (DVS) ([3]; 95% RH, listed as phosphate salt): < 2%
- Adsorption Weight Gain (%) ([3]; Relative humidity 0%): 0.000%
- Desorption Weight Gain (%) ([3]; Relative humidity 0%): 0.000%
- Adsorption Weight Gain (%) [3, 12]: 0.000%
- Desorption Weight Gain (%) [3, 12]: 0.048%
- Adsorption Weight Gain (%) [3, 13]: 0.016%
- Desorption Weight Gain (%) [3, 13]: 0.091%
- Adsorption Weight Gain (%) [3, 14]: 0.177%
- Desorption Weight Gain (%) [3, 14]: 0.447%
- Adsorption Weight Gain (%) [3, 15]: 0.165%
- Desorption Weight Gain (%) [3, 15]: 0.507%
- Adsorption Weight Gain (%) [3, 16]: 0.334%
- Desorption Weight Gain (%) [3, 16]: 0.705%
- Adsorption Weight Gain (%) [3, 17]: 0.309%
- Desorption Weight Gain (%) [3, 17]: 0.738%
- Adsorption Weight Gain (%) [3, 18]: 0.467%
- Desorption Weight Gain (%) [3, 18]: 1.275%
- Adsorption Weight Gain (%) [3, 19]: 0.437%
- Desorption Weight Gain (%) [3, 19]: 1.022%
- Adsorption Weight Gain (%) [3, 20]: 0.520%
- Desorption Weight Gain (%) [3, 20]: 1.421%
- Adsorption Weight Gain (%) [3, 21]: 0.495%
- Desorption Weight Gain (%) [3, 21]: 1.245%
- Adsorption Weight Gain (%) ([3]; Relative humidity 95%): 0.653%
- Desorption Weight Gain (%) ([3]; Relative humidity 95%): 1.547%
- hygroscopicity (in words) ([3]; listed as phosphate salt): slightly hygroscopic
- bioavailability relative to the free base ([4]; oral administration): ~2 fold
- AUC(0-inf) [4, 22]: 1.23 µM·h
- Tmax [4, 22]: 3 h
- concentration at 8 h [4, 22]: 0.062 ± 0.006 µmol/L
- Cmax [4, 22]: 0.15 ± 0.031 µmol/L
- half-life [4, 22]: 4.4 h
- AUC(0-inf) [4, 23]: 2.52 µM·h
- Tmax [4, 23]: 4 h
- concentration at 8 h [4, 23]: 0.148 ± 0.018 µmol/L
- Cmax [4, 23]: 0.263 ± 0.083 µmol/L
- AUC (0-∞) dose ^A [(h · μmol/L)/(mg/kg)] [4, 24]: 0.25 (h · μmol/L)/(mg/kg)
- BAV f [%] [4, 24]: 51%
- t1/2 terminal elimination [4, 24]: 4.8 h
- tlast [4, 24]: 8 h
- AUC (0-∞) dose ^A [(h · μmol/L)/(mg/kg)] [4, 25]: 0.14 (h · μmol/L)/(mg/kg)
- BAV f [%] [4, 25]: 29 ± 3%
- tlast [4, 25]: 8 h
- degradation in solution ([5]; 1:1 acetonitrile/water, listed as phosphate salt): ~70%
- degradation in solution ([5]; acetonitrile, form A): stable
- degradation in solution ([5]; methanol, form A): about 8%
- degradation in solution ([5]; water, listed as phosphate salt): about 45%
SMILES: CCN1CCN(c2ccc(Nc3cc(N(C)C(=O)Nc4c(Cl)c(OC)cc(OC)c4Cl)ncn3)cc2)CC1 [Phosphate salt (form A)]
